Source: PubChem BioAssay (NCI)
Where “and” joins values, the source holds several entries; their conditions need not be identical. Identical values can stand only once.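 The compound was tested at five concentrations on cells cultured in 96-well plates, with a 48-hour exposure period. GI50 is the concentration that inhibits growth by half. Definition used: TGI = concentration required for complete inhibition of growth.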

Assays:
Test in all cases: growth of human tumour cells (NCI), 48 h
CAKI-1 renal = tested on: CAKI-1 renal
NCI-H23 lung = tested on: NCI-H23 lung
BT-549 breast = tested on: BT-549 breast
OVCAR-3 ovarian = tested on: OVCAR-3 ovarian
NCI-H522 lung = tested on: NCI-H522 lung
SR leukemia = tested on: SR leukemia
SK-MEL-2 melanoma = tested on: SK-MEL-2 melanoma
RXF 393 renal = tested on: RXF 393 renal
SF-295 CNS = tested on: SF-295 CNS
SK-MEL-5 melanoma = tested on: SK-MEL-5 melanoma

SMILES | TGI (CAKI-1 renal) | TGI (NCI-H23 lung) | TGI (BT-549 breast) | TGI (OVCAR-3 ovarian) | TGI (NCI-H522 lung) | TGI (SR leukemia) | TGI (SK-MEL-2 melanoma) | TGI (RXF 393 renal) | GI50 (SF-295 CNS) | TGI (SF-295 CNS) | TGI (SK-MEL-5 melanoma) | GI50 (CAKI-1 renal) | GI50 (NCI-H23 lung) | GI50 (BT-549 breast) | GI50 (OVCAR-3 ovarian) | GI50 (NCI-H522 lung) | GI50 (SR leukemia) | GI50 (SK-MEL-2 melanoma) | GI50 (RXF 393 renal) | GI50 (SK-MEL-5 melanoma)
[C-]#[O+].[C-]#[O+].[Ir].[O-]c1ccc2ccccc2c1N=Nc1ccccc1 | 22.7 µM | 31.7 µM | 40.1 µM | 17 µM | 4.01 µM | > 56.4 µM | 49.1 µM | 6.78 µM | 45.9 µM | > 72.1 µM | 28.7 µM |  |  |  |  |  |  |  |  | 
O=C1c2ccccc2C(=O)c2c(NC(=O)C(Cl)CCl)cccc21 (stereo not drawn) | 38.8 µM | 11.6 µM | 31.2 µM | 23.1 µM | 7.13 µM | 0.347 µM | 12.2 µM | 16.2 µM |  | > 62.1 µM | 28.1 µM |  |  |  |  |  |  |  |  | 
COc1cc2cn3c4ccc(O)cc4nc(N)c3c2cc1OC | 3.22 µM | 4.88 µM | 8.96 µM | 3 µM | 1.91 µM | 1.39 µM | 7.61 µM | 2.5 µM | 0.265 µM | 11.5 µM | 0.505 µM | 0.299 µM | 0.968 µM | 1.61 µM | 0.231 µM | 0.0713 µM | 0.0119 µM | 1.89 µM | 0.283 µM | 0.0734 µM
COc1ccc2c(c1)C(=O)c1c-2c(OCCN(C)C)nc2cc(OC)ccc12 | 11.1 µM | 3.5 µM | 15.2 µM | 4.06 µM | 2.66 µM | 1.42 µM | 10.3 µM | 4.52 µM | 2.22 µM | 11.5 µM | 3.38 µM | 2.12 µM | 1.36 µM | 4.03 µM | 1.59 µM | 0.75 µM | 0.264 µM | 3.31 µM | 1.54 µM | 1.73 µM
NC(=O)c1ccc2nc(-c3ccc(C4(N)CCC4)cc3)c(-c3ccccc3)n2n1 | 23.9 µM | 51.8 µM | 14.5 µM | 22 µM | 33.9 µM | 31.2 µM | 31.5 µM | 4.13 µM | 1.26 µM | 15.4 µM | 23.3 µM | 10.3 µM | 16.4 µM | 1.28 µM | 0.817 µM | 16.7 µM | 7.65 µM | 15.2 µM | 0.335 µM | 10.9 µM
COc1cc(CNc2nc3cc(N)cc(N)c3nc2-c2ccccc2)cc(OC)c1OC | 8.76 µM | 17 µM | 11.2 µM | 3.42 µM | > 50 µM | > 50 µM | > 50 µM | 19.9 µM | 1.67 µM | 5.62 µM | 7.79 µM | 1.9 µM | 8.64 µM | 3.84 µM | 1.15 µM | > 50 µM | 0.897 µM | 16.1 µM | 7.47 µM | 0.721 µM
S=c1nc[nH]c2nc[nH]c12 | > 100 µM and 436 µM and > 750 µM | > 100 µM and 271 µM and > 750 µM | > 750 µM | > 100 µM and 537 µM and > 750 µM | > 100 µM and 302 µM and > 750 µM | 72.7 µM and 239 µM | > 100 µM and 664 µM and > 750 µM | > 100 µM and 629 µM and > 750 µM | 1.76 µM and 12.3 µM | > 100 µM and 735 µM and > 750 µM | 62.2 µM and 285 µM and > 430 µM |  | 3.11 µM and 7.97 µM |  | 0.762 µM and 3.66 µM | 5.3 µM and 8.69 µM | 0.43 µM | > 100 µM and 26.2 µM |  | 5.4 µM and 46.1 µM
COc1cc(/C=C/C(=O)NC[C@]2(O)CCC3C4CCc5cc(O)ccc5C4CCC32C)ccc1O (stereo partly drawn) | > 100 µM | 34 µM | 52.1 µM | > 100 µM | 51.7 µM | 59.7 µM | > 100 µM | 85.5 µM | 6.71 µM | > 100 µM | 19.3 µM | 46.9 µM | 5.63 µM | 5.54 µM | 10.3 µM | 6.89 µM | 1.53 µM | 38.8 µM | 6.42 µM | 2.91 µM
CNS(=O)(=O)c1ccccc1C(=N)c1ccccc1 | > 100 µM | > 100 µM | > 100 µM | > 100 µM | > 100 µM | > 100 µM | > 100 µM | > 100 µM |  | > 100 µM | > 100 µM |  |  |  |  |  |  |  |  | 
O=C(Nc1ccc(Cl)cc1F)c1cc(F)ccc1O | 4.54 µM | 3.29 µM | 4.02 µM | 10.8 µM | 9.26 µM | > 100 µM | 3.12 µM | 4.28 µM | 1.8 µM | 3.57 µM | 0.847 µM | 0.588 µM | 0.553 µM | 0.83 µM | 0.528 µM | 0.379 µM | 0.752 µM | 0.519 µM | 0.864 µM | 0.274 µM
C[n+]1c2cc(N)ccc2cc2ccc(N)cc21 (tested in a mixture with another compound) | 3.54 µM | 1.43 µM | 5.25 µM | 8.38 µM | 0.839 µM | 0.537 µM | 15.3 µM | 3.41 µM | 0.809 µM | 4.62 µM | 2.25 µM | 0.429 µM | 0.292 µM | 0.624 µM | 1.16 µM | 0.217 µM | 0.169 µM | 1.62 µM | 1.12 µM | 0.616 µM
CC(C)[C@](O)(C(=O)OCC1=CC[N+]2([O-])CC[C@@H](O)[C@@H]12)[C@H](C)O (stereo partly drawn) | > 9520 µM | > 6000 µM | > 10000 µM | > 10000 µM | > 10000 µM | > 10000 µM | > 10000 µM | > 7940 µM |  | > 10000 µM | > 10000 µM |  |  |  |  |  |  |  |  | 
COc1ccc2[nH]c(-c3ccccc3)c(C=C(C#N)C#N)c2c1 | > 100 µM | > 100 µM | > 100 µM | 16 µM | > 100 µM | 3.29 µM | > 100 µM | > 100 µM | 4.15 µM | > 100 µM | > 100 µM | 4.13 µM | 4.08 µM | 2.17 µM | 3.08 µM | 4.57 µM | 0.865 µM | 5.87 µM | 9.82 µM | 2.87 µM
Cc1cc(Nc2cc(CN3CCOCC3)c3nc(C)c(Cc4ccc(Cl)cc4F)n3n2)n[nH]1 | 4.67 µM | 8.35 µM | 8.92 µM | 15.3 µM | 2.02 µM | 1.53 µM | 7.64 µM | 2.13 µM | 1.79 µM | 5.73 µM | 8.72 µM | 1.74 µM | 1.72 µM | 1.73 µM | 3.24 µM | 0.566 µM | 0.282 µM | 2.37 µM | 0.545 µM | 2.27 µM
OC(COc1cccc2ccccc12)CN1CCN(c2ccc(Cl)cc2)CC1 (stereo not drawn) | 31.4 µM | > 100 µM | > 100 µM | 69.1 µM | 43.5 µM | > 100 µM | 60.3 µM | 75.9 µM | 11.4 µM | 36.9 µM | > 100 µM | 5.8 µM | 29.4 µM | > 100 µM | 23.8 µM | 15.7 µM | > 100 µM | 21.7 µM | 28.6 µM | 55.8 µM
COc1cc(-c2nc3ccccc3[nH]2)ccc1OCC(=O)N=Nc1c(O)[nH]c2ccc(Cl)cc12 | 3.55 µM | 3.48 µM | 4.03 µM | 2.2 µM | 3.48 µM | 1.05 µM | 3.34 µM | 3.48 µM | 1.81 µM | 3.35 µM | 3.2 µM | 1.81 µM | 1.73 µM | 1.98 µM | 0.96 µM | 1.48 µM | 0.292 µM | 1.76 µM | 1.8 µM | 1.72 µM
CC(N)(Cc1c[nH]c2ccccc12)C(=O)O (stereo not drawn) | > 2500 µM | > 2500 µM | > 2500 µM | > 2500 µM | > 2500 µM | > 2500 µM | > 2500 µM | > 2500 µM | > 2500 µM | > 2500 µM | > 2500 µM | > 2500 µM | > 2500 µM | > 2500 µM | > 2500 µM | > 2500 µM | > 2500 µM | > 2500 µM | > 2500 µM | 2350 µM
